The values that follow come from patent US8623869B2, “Compounds useful as inhibitors of ATR kinase” (Vertex Pharmaceuticals Incorporated, priority 2010, dated 2014).

Where only a bound is given, the exact number is not on record here.

T1 sequence (Q13535 whole entry): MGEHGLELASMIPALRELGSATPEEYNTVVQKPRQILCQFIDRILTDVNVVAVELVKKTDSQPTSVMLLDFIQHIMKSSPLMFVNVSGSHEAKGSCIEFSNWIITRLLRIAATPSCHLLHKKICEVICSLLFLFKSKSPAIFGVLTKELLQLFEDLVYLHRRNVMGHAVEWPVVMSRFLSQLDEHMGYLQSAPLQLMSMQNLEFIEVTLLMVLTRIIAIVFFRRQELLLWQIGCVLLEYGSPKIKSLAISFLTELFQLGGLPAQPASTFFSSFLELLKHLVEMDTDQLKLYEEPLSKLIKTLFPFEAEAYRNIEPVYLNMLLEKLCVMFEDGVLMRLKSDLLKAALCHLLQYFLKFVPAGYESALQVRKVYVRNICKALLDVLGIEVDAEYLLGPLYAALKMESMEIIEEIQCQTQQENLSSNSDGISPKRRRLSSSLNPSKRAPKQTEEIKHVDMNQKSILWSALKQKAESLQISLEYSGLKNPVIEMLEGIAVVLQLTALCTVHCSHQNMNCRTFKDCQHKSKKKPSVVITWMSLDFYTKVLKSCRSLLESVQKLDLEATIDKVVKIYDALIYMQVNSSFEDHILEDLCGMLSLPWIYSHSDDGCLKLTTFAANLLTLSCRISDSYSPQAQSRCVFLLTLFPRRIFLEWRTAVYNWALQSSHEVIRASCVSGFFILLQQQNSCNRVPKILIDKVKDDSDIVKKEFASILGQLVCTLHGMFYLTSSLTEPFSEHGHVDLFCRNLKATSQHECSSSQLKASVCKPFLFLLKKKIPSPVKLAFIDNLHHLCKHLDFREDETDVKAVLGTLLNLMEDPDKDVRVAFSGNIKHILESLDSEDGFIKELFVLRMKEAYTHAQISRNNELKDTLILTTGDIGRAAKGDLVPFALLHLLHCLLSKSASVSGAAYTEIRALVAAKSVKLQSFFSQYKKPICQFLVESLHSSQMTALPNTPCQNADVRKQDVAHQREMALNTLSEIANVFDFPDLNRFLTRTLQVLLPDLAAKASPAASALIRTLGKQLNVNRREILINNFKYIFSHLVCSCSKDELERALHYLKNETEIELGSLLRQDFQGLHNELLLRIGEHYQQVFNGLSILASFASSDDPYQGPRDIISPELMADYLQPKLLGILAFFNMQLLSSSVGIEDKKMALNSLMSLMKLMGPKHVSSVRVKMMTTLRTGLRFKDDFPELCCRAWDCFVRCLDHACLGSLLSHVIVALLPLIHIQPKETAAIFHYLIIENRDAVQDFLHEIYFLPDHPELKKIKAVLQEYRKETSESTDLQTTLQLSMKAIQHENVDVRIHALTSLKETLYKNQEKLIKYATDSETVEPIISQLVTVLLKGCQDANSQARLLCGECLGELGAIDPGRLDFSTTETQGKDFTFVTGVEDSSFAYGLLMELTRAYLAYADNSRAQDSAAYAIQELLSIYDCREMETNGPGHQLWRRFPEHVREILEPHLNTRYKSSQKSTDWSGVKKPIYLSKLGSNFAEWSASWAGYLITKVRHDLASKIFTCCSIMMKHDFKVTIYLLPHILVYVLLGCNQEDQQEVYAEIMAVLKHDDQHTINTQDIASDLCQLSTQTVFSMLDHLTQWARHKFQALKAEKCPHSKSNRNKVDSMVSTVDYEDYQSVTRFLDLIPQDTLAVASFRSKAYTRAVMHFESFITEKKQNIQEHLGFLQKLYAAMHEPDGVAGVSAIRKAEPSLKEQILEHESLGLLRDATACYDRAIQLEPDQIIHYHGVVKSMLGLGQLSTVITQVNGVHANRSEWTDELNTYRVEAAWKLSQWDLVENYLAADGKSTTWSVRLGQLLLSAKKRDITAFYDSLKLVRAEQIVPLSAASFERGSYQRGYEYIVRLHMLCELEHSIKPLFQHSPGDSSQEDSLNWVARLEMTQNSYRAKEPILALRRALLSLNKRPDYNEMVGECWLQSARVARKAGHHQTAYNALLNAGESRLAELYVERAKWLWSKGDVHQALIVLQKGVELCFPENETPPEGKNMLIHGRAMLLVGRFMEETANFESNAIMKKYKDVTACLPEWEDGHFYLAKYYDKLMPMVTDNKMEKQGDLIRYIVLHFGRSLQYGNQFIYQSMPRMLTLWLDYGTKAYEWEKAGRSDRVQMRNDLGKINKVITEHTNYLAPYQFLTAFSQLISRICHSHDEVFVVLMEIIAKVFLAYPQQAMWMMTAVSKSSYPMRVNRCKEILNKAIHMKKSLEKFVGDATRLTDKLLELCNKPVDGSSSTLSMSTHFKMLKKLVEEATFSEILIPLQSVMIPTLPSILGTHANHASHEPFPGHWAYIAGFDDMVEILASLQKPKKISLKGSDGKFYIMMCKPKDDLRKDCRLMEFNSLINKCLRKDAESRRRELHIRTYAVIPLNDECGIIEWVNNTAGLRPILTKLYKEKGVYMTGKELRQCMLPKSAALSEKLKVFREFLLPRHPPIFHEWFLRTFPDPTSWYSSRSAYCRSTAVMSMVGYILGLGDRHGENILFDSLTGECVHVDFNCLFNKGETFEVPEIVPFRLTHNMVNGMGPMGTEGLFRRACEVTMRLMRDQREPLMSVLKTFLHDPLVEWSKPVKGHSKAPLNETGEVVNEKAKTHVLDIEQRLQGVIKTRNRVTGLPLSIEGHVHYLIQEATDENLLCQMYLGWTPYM

This experiment concerns the target T1, full-length ATR (Homo sapiens, UniProt Q13535).
T1 construct: Assays were carried out at 25° C. in the presence of 5 nM full-length ATR
The experiment is described as follows: ATR Inhibition Assay (radioactive-phosphate incorporation). In kind it is biochemical. The following applies: Ki(app); 5 nM full-length ATR, 10 μM ATP, 800 μM target peptide, 25° C. How it is done: Compounds were screened for their ability to inhibit ATR kinase using a radioactive-phosphate incorporation assay. Assays were carried out in a mixture of 50 mM Tris/HCl (pH 7.5), 10 mM MgCl2 and 1 mM DTT. Final substrate concentrations were 10 μM [γ-33P]ATP (3mCi 33P ATP/mmol ATP, Perkin Elmer) and 800 μM target peptide (ASELPASQPQPFSAKKK).
Assays were carried out at 25° C. in the presence of 5 nM full-length ATR. An assay stock buffer solution was prepared containing all of the reagents listed above, with the exception of ATP and the test compound of interest. 13.5 μL of the stock solution was placed in a 96 well plate followed by addition of 2 μL of DMSO stock containing serial dilutions of the test compound (typically starting from a final concentration of 15 μM with 3-fold serial dilutions) in duplicate (final DMSO concentration 7%). The plate was pre-incubated for 10 minutes at 25° C. and the reaction initiated by addition of 15 μL [γ-33P]ATP (final concentration 10 μM).
The reaction was stopped after […] by the addition of 30 μL 0.1M phosphoric acid containing 2 mM ATP. A multiscreen phosphocellulose filter 96-well plate (Millipore, Cat no. MAPHN0B50) was pretreated with 100 μL 0.2M phosphoric acid prior to the addition of 45 μL of the stopped assay mixture. The plate was washed with 5×200 μL 0.2M phosphoric acid. After drying, 100 μL Optiphase ‘SuperMix’ liquid scintillation cocktail (Perkin Elmer) was added to the well prior to scintillation counting (1450 Microbeta Liquid Scintillation Counter, Wallac).
After removing mean background values for all of the data points, Ki(app) data were calculated from non-linear regression analysis of the initial rate data using the Prism software package (GraphPad Prism version 3.0cx for Macintosh, GraphPad Software, San Diego Calif., USA).
As to `CC(C)S(=O)(=O)c1ccc(-c2cnc3[nH]cc(-c4ccc(C(=O)O)s4)c3n2)cc1` [Compound I-62, 5-[2-(4-isopropylsulfonylphenyl)-5H-pyrrolo[2,3-b]pyrazin-7-yl]thiophene-2-carboxylic acid], the Ki is at most 10 nM. The same measure for `CC(C)S(=O)(=O)c1ccc(-c2cnc3[nH]cc(-c4sccc4C(=O)O)c3n2)cc1` [Compound I-63, 2-[2-(4-isopropylsulfonylphenyl)-5H-pyrrolo[2,3-b]pyrazin-7-yl]thiophene-3-carboxylic acid]: 10 to 50 nM; for `CC(C)S(=O)(=O)c1ccc(-c2cnc3[nH]cc(-c4csc(C(=O)O)c4)c3n2)cc1` [Compound I-64, 4-[2-(4-isopropylsulfonylphenyl)-5H-pyrrolo[2,3-b]pyrazin-7-yl]thiophene-2-carboxylic acid]: at most 10 nM. For the molecule `CC(C)S(=O)(=O)c1ccc(-c2cnc3[nH]cc(-c4cncc(C(C)(C)O)c4)c3n2)cc1` [Compound I-66, 2-[5-[2-(4-isopropylsulfonylphenyl)-5H-pyrrolo[2,3-b]pyrazin-7-yl]-3-pyridyl]propan-2-ol], the Ki is at most 10 nM.

Turning to `CC(C)S(=O)(=O)c1ccc(-c2cnc3[nH]cc(-c4ccc(-c5nnn[nH]5)cc4)c3n2)cc1` [Compound I-67, 2-(4-isopropylsulfonylphenyl)-7-[4-(1H-tetrazol-5-yl)phenyl]-5H-pyrrolo[2,3-b]pyrazine], the Ki was over 50 nM.

In the case of `CC(C)S(=O)(=O)c1ccc(-c2cnc3[nH]cc(-c4cccc(-c5nnn[nH]5)c4)c3n2)cc1` [Compound I-68, 2-(4-isopropylsulfonylphenyl)-7-[3-(1H-tetrazol-5-yl)phenyl]-5H-pyrrolo[2,3-b]pyrazine], the Ki fell in the range of 10 to 50 nM. The same measure for `CC(Oc1cc(-c2c[nH]c3ncc(-c4ccc(S(=O)(=O)C(C)C)cc4)nc23)sc1C(=O)O)c1ccccc1Cl` (centres unmarked) [Compound I-69, 3-[1-(2-chlorophenyl)ethoxy]-5-[2-(4-isopropylsulfonylphenyl)-5H-pyrrolo[2,3-b]pyrazin-7-yl]thiophene-2-carboxylic acid]: at most 10 nM; for `CC(C)S(=O)(=O)c1ccc(-c2cnc3[nH]cc(-c4cc(O[C@H](C)c5ccccc5Cl)c(C(=O)O)s4)c3n2)cc1` [Compound I-70, 3-[(1R)-1-(2-chlorophenyl)ethoxy]-5-[2-(4-isopropylsulfonylphenyl)-5H-pyrrolo[2,3-b]pyrazin-7-yl]thiophene-2-carboxylic acid]: at most 10 nM.
